Assay results taken from US4892870A, “Oxaza heterocycles and pharmaceutical compositions containing same” (Biofor, Ltd., priority 1988, dated 1990).

Columns and labels:
[1] = cited from G. Moore, U.S. Pat. No. 4,337,345; cited from earlier work
[2] = system: yeast-induced fever; assay: Antipyretic Evaluation (yeast-induced fever); type: in vivo, male Sprague-Dawley rats; conditions: 300 mg/kg oral; Example 1 in olive oil, Example 2 in 0.25% methylcellulose; all decreases significant at p <0.05 (paired-samples Student's t-Test)
Method: Antipyretic: This activity was evaluated by creating a yeast-induced fever in rats according to a modified method of the procedure described by Loux e al in "Toxicology and Applied Pharmacology", Vol. 22: page 672 (1972). In this assay rats injected with yeast in distilled water were dosed with test compounds, aspirin (positive control) and a vehicle (negative control) and the observed differences in body temperature were analyzed statistically.
Antipyretic activity was evaluated using a modification of the test described by Loux et al, in Toxicology and Applied Pharmacology, 22:672(1972), that is, yeast-induced fever in rats. Each test group consisted of ten male Sprague-Dawley rats (Charles River Laboratories), weighing 180-225 grams each. Eighteen hours prior to compound administration the rats were weighed and body temperatures were recorded. Food was removed with water available ad libitum.
Each animal was injected subcutaneously into the central dorsal region with five (5.0) ml portions of a 15% (150 mg/1.0 ml) suspension of Fleischman's yeast in distilled water.
Test compounds suspended in 0.25% methylcellulose (0.25% MC) or olive oil were administered orally by gavage nineteen hours following the yeast injection. Body temperatures were taken and recorded one hour after compound administration. Aspirin (300 mg/kg) was the reference standard drug administered with each antipyretic study. The mean temperature of the compound-treated groups, positive control group (Aspirin) and negative control group (vehicle) were calculated at 18 hours and 20 hours. The data was analyzed statistically using a paired-samples Student's t-Test.

[3] = system: hind paw edema; assay: Adjuvant Arthritis Assay; Developing (percent inhibition of hind paw edema); type: in vivo, female Lewis rats; conditions: Rattus norvegicus, 96 h, once daily for 4 days in 0.25% methylcellulose, paw volumes on fifth day
Method: Anti-Inflammatory: This activity was evaluated via a modification of the Adjuvant Arthritis Assay (AA) described by S. Wong et al in "The Journal of Pharmacology and Experimental Therapeutics", Vol. 185. […] This assay measures the ability of the test compound to antogonize local edema, a characteristic of the inflammatory response. […] The left and right rear paws of female Lewis rats (Charles River Laboratories) weighing 160-180 grams each were measured by mercury displacement prior to injection (Day Zero). Adjuvant arthritis was induced in this rat colony by subcutaneous injection of Mycobacterium butyricum (0.75 mg in 0.1 ml light mineral oil, Fisher) using an automated Cornwall syringe. On days 11-15 post-adjuvant the injected animals with 0.25 to 0.75 ml. paw edema were selected and distributed evenly, according to edema size, into control and experimental groups of ten rats each. Vehicle control and drug treatments were assigned to the groups at random. The assay was performed using a variable dose level for each test compound per kilogram per day in 0.25% methylcellulose. vehicle. All animals were dosed once daily for 4 days and on the fifth day both hind paw volumes were again measured using mercury displacement. The hind paw edema was determined for each rat by subtracting the hind paw volume measured on Day Zero from the hind paw volume measured on the fifth day of the study. Group means were determined and the drug effect was calculated as percent inhibition of the hind paw edema according to the following equation: [formula] […] The known anti-inflammatory NAPROXEN was also tested for comparison purposes.

[4] = system: acetylcholine writhing; assay: Acetylcholine Writhing Assay (analgesic); type: in vivo, male CD-1 mice; conditions: Mus musculus; oral, 45 min before intraperitoneal acetylcholine; writhes counted 10 minutes
Method: Analgesic: The "Acetylcholine Writhing Assay" (ACH) of collier et al [Nature: Vol. 204: page 1316 (1964)] was employed. In this study the test compounds were administered orally to mice and 45 minutes later the mice were injected with acetylcholine. The frequency of writhing was counted in each animal and the response elicited in the drug-treated mice was compared with the response of those given acetylcholine alone.
Analgesic activity was evaluated via the mouse acetylcholine writhing test using a modification of the procedure described by Collier, et al in Nature (New Biol.) Vol. 204; page 1316 (1964) and Br. J. Pharmacol, Chemother, Vol. 32: page 295 (1968). Each test group consisted of ten male CD-1 mice (Charles River Laboratories) weighing 18-28 grams each. Test compounds suspended in a mixture of 0.25% methylcellulose solution […] were administered orally by gavage and fort five minutes later the mice were injected intraperitoneally with acetylcholine (0.55 mg/ml in 0.25% methylcellulose). The number of writhes in each group of mice were counted for 10 minutes immediately following the injection of acetylcholine and the percent inhibition was calculated as follows: [formula] Four dose levels were used to calculate the ED50. of each test compounds.

[5] = LD50; conditions: rat, in vivo, po
[6] = system: hind paw edema; assay: Adjuvant Arthritis Assay; Immunomodulatory; type: in vivo, Lewis female rats; conditions: 50 mg/kg oral, Day 5 to 9 inclusive; edema on Day 15
Method: Immunomodulatory: This activity was determined by using a Modified Adjuvant Assay procedure in which female rats were injected with Mycobacterium butyricum to induce hind paw edema. The test compounds were administered orally and the difference in volume between dosed and non-dosed paws was determined.
Lewis female rats were injected in the tail subcutaneously with Mycobacterium butyricum (0.75 mg in 0.1 ml light mineral oil, Fisher) on Day Zero. Prior to injection the volumes of the left and right rear paws were measured by mercury displacement. All rats were dosed orally with vehicle or test compounds on Day 5 to 9 inclusive. The volume of both hind paws were determined on Day 15 and the percent inhibitions were calculated based upon average edema on Day 15 relative to the edema mean in the control group.

[7] = system: paw edema; assay: Adjuvant Arthritis Assay; Established (chronic anti-inflammatory and antiarthritic); type: in vivo, rats; conditions: Rattus norvegicus, 552 h, oral once daily on days 19-22, paw volumes day 23
Method: In this assay the differences between dosed and non-dosed paw values were determined postadjuvant. Chronic anti-inflammatory and antiarthritic activity were evaluated using the method described by S. Wong in "Tolmetin: A New Non-steroidal Anti-inflammatory Agent" Editor: John R. Ward, Excerpta Medica, N.J. pp. 1-27 (1976). On day 19 post adjuvant all rats were evenly distributed according to edema size. Doses of treatment or vehicle were administered orally to all rats once daily on days 19-22 inclusive. Final paw volumes were determined on day 23 post adjuvant.

## CC(C)(C)c1cc(S(=O)(=O)c2ccccc2)cc(C(C)(C)C)c1O [2,6-di-(tert-butyl)-4-(phenylsulfonyl)phenol]
[1]
  anti-inflammatory activity: absence of anti-inflammatory activity

## CC(C)(C)c1cccc(C(C)(C)C)c1O [2,6-di-(tert-butyl)phenol]
[1]
  anti-inflammatory activity: absence of anti-inflammatory activity

## Cc1cc(C(C)(C)C)c(O)c(C(C)(C)C)c1 [3,5-di(tert-butyl)-4-hydroxytoluene]
[1]
  anti-inflammatory activity: little or no value as an anti-inflammatory agent

## CC(C)(C)c1cc(C(=O)c2ccccc2Cl)cc(C(C)(C)C)c1O [4-(2-chlorobenzoyl)-2,6-di-(tert-butyl)phenol]
[1]
  anti-inflammatory activity: absence of anti-inflammatory activity

## CC(C)(C)c1cc(C(=O)c2cc(C(=O)O)ccc2Cl)cc(C(C)(C)C)c1O [4-(5-carboxy-2-chlorobenzoyl)-2,6-di-(tert-butyl)phenol]
[1]
  anti-inflammatory activity: absence of anti-inflammatory activity

## CC(=O)c1cc(C(C)(C)C)c(O)c(C(C)(C)C)c1 [4-acetyl-2,6-(di-tert-butyl)phenol]
[1]
  anti-inflammatory activity: absence of anti-inflammatory activity

## CC(C)(C)c1cc(C(N)=O)cc(C(C)(C)C)c1O [4-carboxamido-2,6-di-(tert-butyl)phenol]
[1]
  anti-inflammatory activity: absence of anti-inflammatory activity

## CCCCCCCCc1cc(C(C)(C)C)c(O)c(C(C)(C)C)c1 [4-n-octyl-2,6-di-(tert-butyl)phenol]
[1]
  anti-inflammatory activity: absence of anti-inflammatory activity

## CC(=O)Oc1ccccc1C(=O)O [Aspirin, reference compound]
[2]
  Change in Temperature, 18-20 Hour Period: -2.05 °C

## CN1OC/C(=C\c2cc(C(C)(C)C)c(O)c(C(C)(C)C)c2)C1=O [Example 1 (E-Isomer), 4-(3,5-di-tert-butyl-4-hydroxybenzylidene)-2-methyl-3-isoxazolidinone]
[3]
  ED50: 20 mg/kg
[4]
  ED50: 18 mg/kg

## CN1OC/C(=C/c2cc(C(C)(C)C)c(O)c(C(C)(C)C)c2)C1=O [Example 1 (Z-Isomer), 4-(3,5-di-tert-butyl-4-hydroxybenzylidene)-2-methyl-3-isoxazolidinone]
[3]
  ED50: 36 mg/kg

## CN1OCC(=Cc2cc(C(C)(C)C)c(O)c(C(C)(C)C)c2)C1=O [Example 1, 4-(3,5-Di-tert-Butyl-4-Hydroxybenzylidene)-2-Methyl-3-Isoxazolidinone; E and Z Isomers]
[5]
  LD50: > 1000 mg/kg
[6]
  % Inhibition: 43%
[2]
  Change in Temperature, 18-20 Hour Period: -1.33 °C
[7]
  ED50: 44 mg/kg

## CN1OCCC(=Cc2cc(C(C)(C)C)c(O)c(C(C)(C)C)c2)C1=O [Example 2, Dihydro-4-(3,5-Di-tert-Butyl-4-Hydroxybenzylidene)-2-Methyl-2H-1,2-Oxazin-3(4H)-one]
[3]
  ED50: 7 mg/kg
[5]
  LD50: > 1000 mg/kg
[6]
  % Inhibition: 39%
[4]
  ED50: 2.8 mg/kg
[2]
  Change in Temperature, 18-20 Hour Period: -1.33 °C
[7]
  ED50: 8 mg/kg

## COc1ccc2cc([C@H](C)C(=O)O)ccc2c1 [NAPROXEN, reference compound]
[3]
  ED50: 28 mg/kg
[4]
  ED50: 6.2 mg/kg
[7]
  ED50: 28 mg/kg
